Literature values as cited in patent US12605432B2, “Combinations for antigen based therapy” (Diamyd Medical AB, priority 2014, dated 2026).
Where two headings read alike, the source gives them in different places.

Columns and labels:
[1] = tested on: residual insulin secretion in T1D patients; conditions: in vivo
[2] = tested on: blood glucose (BG) concentrations in patients; conditions: diabetic and nondiabetic patients in general clinical practice
T1D in NOD mice = conditions: mouse, in vivo
[3] = tested on: B cells, dendritic cells and T cells
DCs = conditions: decreased CD40, CD80, CD86, low IL-12, enhanced IL-10 secretion
[4] = tested on: mouse islet allografts; autoimmune diabetes

NC(=O)c1cccnc1 [nicotinamide]
effect of protective agents [1]: no or transient effect

CNC(=O)c1cc(Oc2ccc(NC(=O)Nc3ccc(Cl)c(C(F)(F)F)c3)cc2)ccn1 [sorafenib]
blood glucose (BG) [2]: significant declines in BG

FC(F)(F)c1ccc(CNc2ccc(Cc3c[nH]c4ncccc34)cn2)cc1 [PLX647]
effect on T1D in NOD mice (T1D in NOD mice): only marginal efficacy

Cc1ccc(NC(=O)c2ccc(CN3CCN(C)CC3)cc2)cc1Nc1nccc(-c2cccnc2)n1 [imatinib]
effect on T1D in NOD mice (T1D in NOD mice): prevented and reversed T1D
IL-10 secretion (macrophage cultures): induced secretion of anti-inflammatory IL-10

C=C1/C(=C\C=C2/CCC[C@]3(C)[C@@H]([C@H](C)CCCC(C)(C)O)CC[C@@H]23)C[C@@H](O)C[C@@H]1O [1,25-Dihydroxyvitamin D(3)]
expression of IL-10 by dendritic cells and T cells [3]: enhances
expression of IgE by B cells [3]: inhibits
DC phenotype (DCs): induces DCs with a tolerogenic phenotype
tolerance to islet allografts ([4]; mouse): induced tolerance to mouse islet allografts
diabetes development ([4]; non-hypercalcemic doses): inhibited diabetes development

Insulin: β cell specific auto-antigen
prevention of diabetes (high risk individuals; oral administration): may have a slight effect
prevention of diabetes (high risk individuals; parenteral administration (DPT)): no effect

CC(C)Cc1ccc(C(C)C(=O)O)cc1 (stereo not shown) [ibuprofen]
expression level of total MHC molecules and co-stimulatory molecules on DCs (dendritic cells (DCs)): increased
phagocytic activity of DCs (dendritic cells (DCs)): did not inhibit
MHC class I and class II-restricted presentation of antigen (dendritic cells (DCs); dendritic cells): inhibit MHC class I and class II-restricted presentation of antigen

CC1=NS(=O)(=O)c2cc(Cl)ccc2N1 [diazoxide]
effect of protective agents [1]: no or transient effect
